This passage reports DC50 and IC50 results from patent publication US20260295053A1, “COMPOUNDS FOR DEGRADATION AND INHIBITION OF KRAS (G12D) PROTEIN” (Shenzhen Ionova Life Science Co., Ltd., priority 2023, published 2026).

Each structure is given as a SMILES string.

Assay [1] deals with T1, KRAS (G12D) (Homo sapiens, UniProt P01116, G12D).
T1 construct: in-cell western with KRAS G12D antibody after 24 h
Description: KRAS (G12D) cellular degradation assay in AsPC-1 cells. The format is cell-based. To be noted: 24 hours, antibody fluorescence (Odyssey CLX), DC50 half-maximal degradation concentration. In outline: (§1)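 AsPC-1 cells: for degradation, grown to ~90% confluency, treated 24 h with 1:3 compound series ([…] to 1.5 nM), then fixed and immunostained for KRAS G12D and β-actin, read by infrared fluorescence, DC50 fitted. Proliferation: 3,500 cells/well, 6-day treatment, CellTiter Glo luminescence, IC50 fitted.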

For assay [2], the system named is AsPC-1 cells. Description: AsPC-1 cell proliferation assay (CellTiter Glo). The class given is cell-based. Conditions: Homo sapiens, ASPC1, 144 h, 6 days. In outline: as §1
(Cellular ATP, detected with luciferase, serves as a proxy for viable cell number.)

T1 sequence (P01116 1-188 isoform P01116-2 G12D): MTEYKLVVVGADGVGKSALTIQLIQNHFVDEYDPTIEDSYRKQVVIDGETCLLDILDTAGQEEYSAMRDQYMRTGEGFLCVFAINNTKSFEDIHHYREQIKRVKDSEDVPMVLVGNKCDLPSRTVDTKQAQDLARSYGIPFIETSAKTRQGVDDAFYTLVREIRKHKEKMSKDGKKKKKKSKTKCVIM

In the case of `Cc1ncsc1-c1ccc([C@@H](NC(=O)[C@@H]2C[C@@H](O)CN2C(=O)[C@H](C(C)C)n2cc(-c3ccc(COc4c(-c5c(C)c(F)cc6[nH]ncc56)c(C5CC5)cc5c(N6C[C@@H]7C[C@H]6CN7)nc(OC6CCC7(CC6)COC7)nc45)cc3)nn2)[C@H](C)O)cc1` [Example 96, (2S,4R)-1-((2S)-2-(4-(4-(((2-((2-oxaspiro[3.5]nonan-7-yl)oxy)-4-((1S,4S)-2,5-diazabicyclo[2.2.1]heptan-2-yl)-6-cyclopropyl-7-(6-fluoro-5-methyl-1H-indazol-4-yl)quinazolin-8-yl)oxy)methyl)phenyl)-1H-1,2,3-triazol-1-yl)-3-methylbutanoyl)-4-hydroxy-N-((1R,2S)-2-hydroxy-1-(4-(4-methylthiazol-5-yl)phenyl)propyl)pyrrolidine-2-carboxamide], the DC50 – broadly, the concentration at which degradation of the target reaches its halfway point – in assay [1] is less than 10 nM. Moreover, the IC50 – broadly, the concentration that gives 50% inhibition – in assay [2] is less than 10 nM.

`CO[C@@H](C)COc1nc(N2C[C@@H]3C[C@H]2CN3)c2cc(C3CC3)c(-c3c(C)c(F)c(Cl)c4[nH]ncc34)c(OCc3ccc(-c4cn([C@H](C(=O)N5C[C@H](O)C[C@H]5C(=O)N[C@@H](CO)c5ccc(-c6scnc6C)cc5)C(C)C)nn4)cc3)c2n1` [Example 97, (2S,4R)-1-((2S)-2-(4-(4-(((4-((1S,4S)-2,5-diazabicyclo[2.2.1]heptan-2-yl)-7-(7-chloro-6-fluoro-5-methyl-1H-indazol-4-yl)-6-cyclopropyl-2-((S)-2-methoxypropoxy)quinazolin-8-yl)oxy)methyl)phenyl)-1H-1,2,3-triazol-1-yl)-3-methylbutanoyl)-4-hydroxy-N—((R)-2-hydroxy-1-(4-(4-methylthiazol-5-yl)phenyl)ethyl)pyrrolidine-2-carboxamide] had a DC50 in assay [1] of less than 10 nM. This compound also showed a half-inhibitory concentration (IC50) in assay [2] of less than 10 nM.

In assay [1], `CO[C@@H](C)COc1nc(N2C[C@@H]3C[C@H]2CN3)c2cc(C3CC3)c(-c3c(C)c(F)cc4[nH]ncc34)c(OCc3ccc(-c4cn([C@H](C(=O)N5C[C@H](O)C[C@H]5C(=O)N[C@H](C#Cc5cccc(F)c5Cl)CO)C(C)C)nn4)cc3)c2n1` [Example 98, (2S,4R)-1-((2S)-2-(4-(4-(((4-((1S,4S)-2,5-diazabicyclo[2.2.1]heptan-2-yl)-6-cyclopropyl-7-(6-fluoro-5-methyl-1H-indazol-4-yl)-2-((S)-2-methoxypropoxy)quinazolin-8-yl)oxy)methyl)phenyl)-1H-1,2,3-triazol-1-yl)-3-methylbutanoyl)-N—((R)-4-(2-chloro-3-fluorophenyl)-1-hydroxybut-3-yn-2-yl)-4-hydroxypyrrolidine-2-carboxamide] gave a DC50 of 10 to 100 nM. The compound further registered an IC50 in assay [2] of less than 10 nM.

`CCn1nccc1-c1ccc([C@H](CO)NC(=O)[C@@H]2C[C@@H](O)CN2C(=O)[C@H](C(C)C)n2cc(-c3ccc(COc4c(-c5c(C)c(F)c(F)c6[nH]ncc56)c(C5CC5)cc5c(N6C[C@@H]7C[C@H]6CN7)nc(O[C@H]6CC[C@H](OC)CC6)nc45)cc3)nn2)cc1` [Example 99, (2S,4R)-1-((2S)-2-(4-(4-(((4-((1S,4S)-2,5-diazabicyclo[2.2.1]heptan-2-yl)-6-cyclopropyl-7-(6,7-difluoro-5-methyl-1H-indazol-4-yl)-2-(((1r,4S)-4-methoxycyclohexyl)oxy)quinazolin-8-yl)oxy)methyl)phenyl)-1H-1,2,3-triazol-1-yl)-3-methylbutanoyl)-N—((R)-1-(4-(1-ethyl-1H-pyrazol-5-yl)phenyl)-2-hydroxyethyl)-4-hydroxypyrrolidine-2-carboxamide] came in with a DC50 in assay [1] of less than 10 nM. Also, the concentration for half-maximal inhibition (IC50) in assay [2] was less than 10 nM.

In assay [1], `CCn1nccc1-c1ccc([C@@H](NC(=O)[C@@H]2C[C@@H](O)CN2C(=O)[C@H](C(C)C)n2cc(-c3ccc(COc4c(-c5c(C)c(F)cc6[nH]ncc56)c(C5CC5)cc5c(N6C[C@@H]7C[C@H]6CN7)nc(OC6CC7(COC7)C6)nc45)cc3)nn2)[C@H](C)O)cc1` [Example 100, (2S,4R)-1-((2S)-2-(4-(4-(((2-((2-oxaspiro[3.3]heptan-6-yl)oxy)-4-((1S,4S)-2,5-diazabicyclo[2.2.1]heptan-2-yl)-6-cyclopropyl-7-(6-fluoro-5-methyl-1H-indazol-4-yl)quinazolin-8-yl)oxy)methyl)phenyl)-1H-1,2,3-triazol-1-yl)-3-methylbutanoyl)-N-((1R,2S)-1-(4-(1-ethyl-1H-pyrazol-5-yl)phenyl)-2-hydroxypropyl)-4-hydroxypyrrolidine-2-carboxamide] gave a DC50 of less than 10 nM. In addition, in assay [2], the IC50 was less than 10 nM.

Turning to `CCn1nccc1-c1ccc([C@H](CO)NC(=O)[C@@H]2C[C@@H](O)CN2C(=O)[C@H](C(C)C)n2cc(-c3ccc(COc4c(-c5c(C)c(F)cc6[nH]ncc56)c(C5CC5)cc5c(N6C[C@@H]7C[C@H]6CN7)nc(OC6CC7(CCOC7)C6)nc45)cc3)nn2)cc1` (stereo partly drawn) [Example 101, (2S,4R)-1-((2S)-2-(4-(4-(((2-((6-oxaspiro[3.4]octan-2-yl)oxy)-4-((1S,4S)-2,5-diazabicyclo[2.2.1]heptan-2-yl)-6-cyclopropyl-7-(6-fluoro-5-methyl-1H-indazol-4-yl)quinazolin-8-yl)oxy)methyl)phenyl)-1H-1,2,3-triazol-1-yl)-3-methylbutanoyl)-N—((R)-1-(4-(1-ethyl-1H-pyrazol-5-yl)phenyl)-2-hydroxyethyl)-4-hydroxypyrrolidine-2-carboxamide], in assay [1], the DC50 was less than 10 nM. The compound further gave an IC50 in assay [2] of less than 10 nM.

For `CO[C@H]1C[C@@H](Oc2nc(N3C[C@@H]4C[C@H]3CN4)c3cc(C4CC4)c(-c4c(C)c(F)cc5[nH]ncc45)c(OCc4ccc(-c5cn([C@H](C(=O)N6C[C@H](O)C[C@H]6C(=O)N[C@@H](CO)c6ccc(-c7scnc7C)cc6)C(C)C)nn5)cc4)c3n2)C1` [Example 102, (2S,4R)-1-((2S)-2-(4-(4-(((4-((1S,4S)-2,5-diazabicyclo[2.2.1]heptan-2-yl)-6-cyclopropyl-7-(6-fluoro-5-methyl-1H-indazol-4-yl)-2-((1s,3R)-3-methoxycyclobutoxy)quinazolin-8-yl)oxy)methyl)phenyl)-1H-1,2,3-triazol-1-yl)-3-methylbutanoyl)-4-hydroxy-N—((R)-2-hydroxy-1-(4-(4-methylthiazol-5-yl)phenyl)ethyl)pyrrolidine-2-carboxamide], the 50% degradation concentration (DC50) in assay [1] was less than 10 nM. In addition, the IC50 in assay [2] was less than 10 nM.

Consider `COC1CCC(Oc2nc(N3C[C@@H]4C[C@H]3CN4)c3cc(C4CC4)c(-c4c(C)c(F)c(F)c5[nH]ncc45)c(OCc4ccc(-c5cn([C@H](C(=O)N6C[C@H](O)C[C@H]6C(=O)N[C@@H](CO)c6ccc(-c7scnc7C)cc6)C(C)C)nn5)cc4)c3n2)CC1` (stereo partly drawn) [Example 103, (2S,4R)-1-((2S)-2-(4-(4-(((4-((1S,4S)-2,5-diazabicyclo[2.2.1]heptan-2-yl)-6-cyclopropyl-7-(6,7-difluoro-5-methyl-1H-indazol-4-yl)-2-(((1s,4R)-4-methoxycyclohexyl)oxy)quinazolin-8-yl)oxy)methyl)phenyl)-1H-1,2,3-triazol-1-yl)-3-methylbutanoyl)-4-hydroxy-N—((R)-2-hydroxy-1-(4-(4-methylthiazol-5-yl)phenyl)ethyl)pyrrolidine-2-carboxamide], for which the DC50 in assay [1] was 10 to 100 nM. This compound registered an IC50 in assay [2] of less than 10 nM.
